One test deals with T1, MtCA2 (Mycobacterium tuberculosis, UniProt P9WPJ9).
T1 construct: made in house
The experiment in a line: stopped-flow CO2 hydrase assay, MtCA2. The class given is biochemical. The method, then: BTDs 2a-2t were submitted to a stopped-flow CO2 hydrase kinetic assay to evaluate the inhibitory profile against the mycobacterial β-CAs MtCA1, MtCA2, MtCA3 (Table 1), in comparison to the inhibitory effect on hCA I and II, which were selected due to their abundance in the human organism and thus off-target in this study.
A stopped-flow instrument from Applied Photophysics was utilized to assess the inhibition of CA-catalyzed CO2 hydration activity. […] The assay employed 20 mM HEPES (pH 8.3) as a buffer and 20 mM Na2SO4 to maintain constant ionic strength. The investigation focused on the initial rates of the CA-catalyzed CO2 hydration reaction over a duration of 10–100 s. CO2 concentrations ranging from 1.7 to 17 mM were employed to determine kinetic parameters and inhibition constants. For each inhibitor, a minimum of six traces of the initial 5–10% of the reaction were utilized to determine the initial velocity. Uncatalyzed rates were determined in a similar manner and subtracted from the overall observed rates. Inhibitor stock solutions (0.1 mM) were initially prepared in distilled–deionized water, followed by subsequent dilutions up to 0.01 nM with the assay buffer. To allow for the formation of the E-I complex, inhibitor and enzyme solutions were preincubated together for 15 min at room temperature before the assay. The inhibition constants were derived through nonlinear least-squares methods using PRISM and the Cheng–Prusoff equation, as previously reported, representing the mean from at least three different determinations.

The subject of test [1] is M. tuberculosis strain susceptible to rifampicin and isoniazid. Briefly: tuberculostatic activity assay, strain susceptible to rifampicin and isoniazid. It is filed as cell-based, Mycobacterium tuberculosis. The settings on record: 28 days, 37 °C.
A further test deals with hCA II. Details: method as in PMID 31794211. The settings on record: stopped-flow CO2 hydrase assay; cited from earlier work.
The next test deals with hCA I. On the set-up: method as in PMID 31794211. The settings on record: stopped-flow CO2 hydrase assay; cited from earlier work.
The target in the next test is MtCA3 (Mycobacterium tuberculosis, UniProt P96878). The experiment in a line: biochemical.
The target of the next test is T2, MtCA1 (Mycobacterium tuberculosis, UniProt P9WPJ7).
T2 construct: made in house
The experiment in a line: biochemical.

T1 sequence (P9WPJ9 whole entry, looked up): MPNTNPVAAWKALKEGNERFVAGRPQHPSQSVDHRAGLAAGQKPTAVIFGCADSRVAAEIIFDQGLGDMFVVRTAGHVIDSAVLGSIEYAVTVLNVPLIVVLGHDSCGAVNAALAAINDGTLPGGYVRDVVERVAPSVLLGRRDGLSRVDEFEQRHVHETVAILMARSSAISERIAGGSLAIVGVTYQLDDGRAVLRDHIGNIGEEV
MtCA3, sequence (P96878 550-764 limits assumed): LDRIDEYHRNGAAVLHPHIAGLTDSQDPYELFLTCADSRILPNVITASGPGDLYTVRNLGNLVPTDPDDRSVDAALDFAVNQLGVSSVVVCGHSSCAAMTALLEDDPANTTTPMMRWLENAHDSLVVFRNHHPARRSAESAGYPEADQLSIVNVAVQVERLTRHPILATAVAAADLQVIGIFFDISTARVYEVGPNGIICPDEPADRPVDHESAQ
T2 sequence (P9WPJ7 whole entry): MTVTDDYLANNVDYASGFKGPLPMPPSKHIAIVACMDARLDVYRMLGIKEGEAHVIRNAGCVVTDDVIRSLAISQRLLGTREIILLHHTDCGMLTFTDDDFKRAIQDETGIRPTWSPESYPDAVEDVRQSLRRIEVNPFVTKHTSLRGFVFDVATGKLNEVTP

As for `O=C1Nc2ccc(O)cc2S(=O)(=O)N1` [2t], the Ki (usually the equilibrium dissociation constant of an inhibitor or competing ligand from its target) on MtCA2 is 58.4 ± 4.1 nM; at hCA II, 3020 nM; on hCA I, 1890 nM; on MtCA3 (stopped-flow CO2 hydrase assay, mean from three assays), 45.6 ± 3.5 nM; at MtCA1 (stopped-flow CO2 hydrase assay, mean from three assays, read-out: Ki MtCA1) it was 2390 ± 126 nM. Further, at MtCA2 (ratio of Ki values), the “Selectivity Index (SI) hCA II/MtCA2” value stood at 51.8. Further, the figures for the “number of M. tuberculosis colonies/standard inoculum volume (0.2 mL)” value in test [1] (1 µg/mL in Lowenstein Jensen medium) and in test [1] (2 µg/mL in Lowenstein Jensen medium) were 30–100 colonies and 0 colonies, respectively. In addition, at MtCA3 (ratio of Ki values), the “Selectivity Index (SI) hCA II/MtCA3” value worked out at 66.3. On MtCA1 (ratio of Ki values), the “Selectivity Index (SI) hCA II/MtCA1” value is 1.3.

The values above are taken from PMC10932284 (International Journal of Molecular Sciences, 2024).
